Assay results: publication PMC9386001, “Identification of naturally occurring inhibitors in Xian-Ling-Gu-Bao capsule against the glucuronidation of estrogens” (Frontiers in Pharmacology, 2022)
Blank lines part the entries; values can stand above or below the molecule they belong to.

Tests used:
[1] = target: T1, UGT1A10 (Homo sapiens, UniProt Q9HAW8); design: purchased Corning Biosciences; conditions: substrate of UGT1A10; ref Xin et al., 2016; Gao et al., 2020; cited from earlier work
T1 sequence (Q9HAW8 26-530): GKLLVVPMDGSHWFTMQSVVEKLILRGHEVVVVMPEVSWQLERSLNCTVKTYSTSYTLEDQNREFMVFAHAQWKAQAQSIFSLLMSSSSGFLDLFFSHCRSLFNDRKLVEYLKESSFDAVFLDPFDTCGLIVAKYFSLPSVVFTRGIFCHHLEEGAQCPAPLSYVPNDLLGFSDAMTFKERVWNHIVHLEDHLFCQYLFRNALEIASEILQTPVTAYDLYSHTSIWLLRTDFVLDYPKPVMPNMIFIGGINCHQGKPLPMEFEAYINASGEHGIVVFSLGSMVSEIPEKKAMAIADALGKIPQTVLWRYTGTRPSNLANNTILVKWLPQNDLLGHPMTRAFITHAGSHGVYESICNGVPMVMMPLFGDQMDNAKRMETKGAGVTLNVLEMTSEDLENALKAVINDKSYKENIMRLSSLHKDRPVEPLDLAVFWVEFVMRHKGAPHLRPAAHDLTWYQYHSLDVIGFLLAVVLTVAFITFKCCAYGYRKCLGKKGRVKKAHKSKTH

[2] = target: T2, UGT1A3 (Homo sapiens, UniProt P35503); experiment: Estrogen glucuronidation kinetics by expressed UGT1A3; format: in vitro ADME
T2 construct: purchased Corning Biosciences
T2 sequence (P35503 29-534): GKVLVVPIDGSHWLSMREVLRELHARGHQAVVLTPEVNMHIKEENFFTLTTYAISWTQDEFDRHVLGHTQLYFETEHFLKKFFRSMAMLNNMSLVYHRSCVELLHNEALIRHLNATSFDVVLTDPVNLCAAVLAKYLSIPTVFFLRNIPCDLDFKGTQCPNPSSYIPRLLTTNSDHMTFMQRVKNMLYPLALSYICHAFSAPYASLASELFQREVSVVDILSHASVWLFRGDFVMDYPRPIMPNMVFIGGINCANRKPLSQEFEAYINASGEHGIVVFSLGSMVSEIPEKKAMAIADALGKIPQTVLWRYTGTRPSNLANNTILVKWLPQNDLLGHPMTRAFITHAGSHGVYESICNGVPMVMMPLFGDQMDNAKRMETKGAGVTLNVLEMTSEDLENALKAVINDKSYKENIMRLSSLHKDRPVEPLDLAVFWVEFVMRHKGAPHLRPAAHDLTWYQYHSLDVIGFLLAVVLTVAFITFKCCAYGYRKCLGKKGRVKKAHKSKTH
Description: (§1) In brief, incubation mixtures (100 μL) contained Tris-HCl buffer solution (50 mM, pH = 7.4), microsomes (HLM, HIM, 0.5 mg/ml) or UGT enzymes (1 mg/ml), MgCl2 (0.88 mM), alamethicin (22 μg/ml), and D-saccharic-1,4-lactone (4.4 mM) and respective substrate. The volume of organic solvent in incubation mixtures was kept below 1%. After pre-incubation at 37°C for 5 min, the reaction was commenced with the addition of UDPGA (4 mM) and subsequently incubated at 37°C for a period. The reaction was terminated by adding 100 μL of cold acetonitrile. Then, the incubation mixtures were vortexed and centrifuged at 13,800 g for 10 min to collect the supernatant for analysis.
(§2) All experiments were performed in triplicate.
(§3) Glucuronidation rates were expressed as the amounts of formed metabolites per minute per milligram protein (pmol/min/mg protein) based on Eq. 1. Furthermore, kinetic characteristics were evaluated from the suitable curves based on the profile of the Eadie–Hofstee plot, and corresponding kinetic parameters were estimated using Eqs 2–4. Appropriated model fitting was performed by GraphPad Prism V5 software (San Diego, CA).
(§4) The intrinsic clearance (CL int ) was derived from V max /K m for Michaelis–Menten and substrate inhibition models, and the maximal clearance (CL max ) was obtained using Eq. 5 for Hill kinetics. Vg=Cs∗V/Cprotein∗T∗Vprotein. […]

[3] = test system: human liver microsomes (HLM); experiment: Estrogen glucuronidation kinetics by HLM; format: in vitro ADME; conditions: HLM
Description: as §1, §2, §3
(§5) The intrinsic clearance (CL int ) was derived from V max /K m for Michaelis–Menten and substrate inhibition models, and the maximal clearance (CL max ) was obtained using Eq. 5 for Hill kinetics. Vg=Cs∗V/Cprotein∗T∗Vprotein. (1) V=Vmax×[S]/Km+[S], (2) V=Vmax×[S]/Km+[S](1+[S]/Ksi), (3) V=Vmax×[S]^n/S50n[…], (4) CLmax=Vmax/S50×n−1/n(n−1)^1/n. (5)

[4] = test system: human intestine microsomes (HIM); experiment: Estrogen glucuronidation kinetics by HIM; format: in vitro ADME; conditions: HIM
Description: as §2
(§6) Vg=Cs∗V/Cprotein∗T∗Vprotein. […] (5)

[5] = Estrogen glucuronidation kinetics by HIM; format: in vitro ADME, human; conditions: human, human intestine microsomes, pH 7.4, HIM, read-out: CL int or CL max
Description: as §2, §6

[6] = target: T1, UGT1A10; experiment: Glucuronidation kinetics by expressed UGT1A10
Description: as §1, with “The glucuronidation assay was conducted as described previously ([Qin et al., 2018]; [Xu et al., 2018]). In” for “In”
as §2, §3, §5

[7] = target: T3, UGT1A1 (Homo sapiens, UniProt P22309); experiment: Estrogen glucuronidation kinetics by expressed UGT1A1; conditions: 3-O-glucuronide formation
T3 sequence (P22309 26-533): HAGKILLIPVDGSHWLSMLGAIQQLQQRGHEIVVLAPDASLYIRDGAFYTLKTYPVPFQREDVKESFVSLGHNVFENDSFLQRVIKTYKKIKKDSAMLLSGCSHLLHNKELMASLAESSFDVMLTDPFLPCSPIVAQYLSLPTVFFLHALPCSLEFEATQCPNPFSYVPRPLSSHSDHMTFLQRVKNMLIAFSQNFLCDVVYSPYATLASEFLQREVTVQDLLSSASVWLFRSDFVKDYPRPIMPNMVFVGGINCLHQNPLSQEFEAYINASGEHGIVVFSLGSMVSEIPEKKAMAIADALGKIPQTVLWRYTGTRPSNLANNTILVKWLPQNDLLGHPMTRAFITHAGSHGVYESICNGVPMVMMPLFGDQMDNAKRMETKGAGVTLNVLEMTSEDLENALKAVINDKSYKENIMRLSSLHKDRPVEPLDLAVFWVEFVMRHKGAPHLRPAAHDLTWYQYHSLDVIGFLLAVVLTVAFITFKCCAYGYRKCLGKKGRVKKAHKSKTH
Description: as §1, §2, §3, §4

[8] = target: T4, UGT2B7 (Homo sapiens, UniProt P16662); experiment: Estrogen glucuronidation kinetics by expressed UGT2B7; conditions: recombinant (expressed) UGT2B7, pH 7.4
T4 sequence (P16662 24-529): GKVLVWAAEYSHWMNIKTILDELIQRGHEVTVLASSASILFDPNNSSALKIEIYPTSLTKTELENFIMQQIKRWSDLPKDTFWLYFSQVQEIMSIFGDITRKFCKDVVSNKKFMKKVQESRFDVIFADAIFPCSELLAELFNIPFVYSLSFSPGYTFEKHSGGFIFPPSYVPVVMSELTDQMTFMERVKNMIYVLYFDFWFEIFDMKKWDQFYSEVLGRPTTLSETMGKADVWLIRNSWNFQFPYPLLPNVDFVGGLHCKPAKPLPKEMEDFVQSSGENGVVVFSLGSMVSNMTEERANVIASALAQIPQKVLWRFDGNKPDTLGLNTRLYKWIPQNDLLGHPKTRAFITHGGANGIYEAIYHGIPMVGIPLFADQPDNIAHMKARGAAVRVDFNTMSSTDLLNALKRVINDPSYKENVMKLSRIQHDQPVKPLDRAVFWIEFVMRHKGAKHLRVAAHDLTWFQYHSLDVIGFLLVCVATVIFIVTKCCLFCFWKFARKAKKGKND

[9] = Estrogen glucuronidation kinetics by HLM; format: in vitro ADME, human; conditions: human, human liver microsomes, pH 7.4, HLM, read-out: CL int or CL max
Description: as §1, §2, §3, §5

[10] = substrate: C[C@]12CC[C@@H]3c4ccc(O)cc4CC[C@H]3[C@@H]1CCC2=O; experiment: Estrogen glucuronidation kinetics by expressed UGT1A3; format: in vitro ADME, human; conditions: other: UGT1A3; 3-O-glucuronide formation; pH 7.4; 37.0 °C
[11] = 3-O-glucuronide formation, Hill coefficient

Molecule: Cc1cc(=O)oc2cc(O)ccc12 [4-MU, 4-methylumbelliferone]
- Km [1]: ~60 µM

B1: UGT1A3 (Homo sapiens) (protein)
chain: GKVLVVPIDGSHWLSMREVLRELHARGHQAVVLTPEVNMHIKEENFFTLTTYAISWTQDEFDRHVLGHTQLYFETEHFLKKFFRSMAMLNNMSLVYHRSCVELLHNEALIRHLNATSFDVVLTDPVNLCAAVLAKYLSIPTVFFLRNIPCDLDFKGTQCPNPSSYIPRLLTTNSDHMTFMQRVKNMLYPLALSYICHAFSAPYASLASELFQREVSVVDILSHASVWLFRGDFVMDYPRPIMPNMVFIGGINCANRKPLSQEFEAYINASGEHGIVVFSLGSMVSEIPEKKAMAIADALGKIPQTVLWRYTGTRPSNLANNTILVKWLPQNDLLGHPMTRAFITHAGSHGVYESICNGVPMVMMPLFGDQMDNAKRMETKGAGVTLNVLEMTSEDLENALKAVINDKSYKENIMRLSSLHKDRPVEPLDLAVFWVEFVMRHKGAPHLRPAAHDLTWYQYHSLDVIGFLLAVVLTVAFITFKCCAYGYRKCLGKKGRVKKAHKSKTH
notes: purchased Corning Biosciences
- K0.5 [10]: 9.23 ± 0.39 µM

The remaining lines, values ahead:

- h [2, 11]: 2.09 ± 0.16
- microsomal CLint ([2]; human, recombinant (expressed) UGT1A3, pH 7.4, 3-O-glucuronide formation, read-out: CL int or CL max): 11.7 ± 0.95 µL/min/mg
- K m or S50 ([3]; 3-O-glucuronide formation): 6.87 ± 0.59 µM
- K m or S50 ([4]; 3-O-glucuronide formation): 8.82 ± 0.37 µM
- h [4, 11]: 1.63 ± 0.09
- microsomal CLint ([5]; 3-O-glucuronide formation): 25.25 ± 0.24 µL/min/mg
Molecule: C[C@]12CC[C@@H]3c4ccc(O)cc4CC[C@H]3[C@@H]1CCC2=O [E1, Estrone]

- K m or S50 ([6]; 3-O-glucuronide formation): 113.2 ± 46.66 µM
- Ki ([6]; 3-O-glucuronide formation, substrate inhibition constant): 71.98 ± 35.77 µM
- K m or S50 ([6]; 17-O-glucuronide formation): 16.39 ± 3.53 µM
- K m or S50 [7]: 11.08 ± 0.48 µM
- V max [7]: 754.9 ± 15.14 pmol/min/mg
Molecule: C[C@]12CC[C@@H]3c4ccc(O)cc4CC[C@H]3[C@@H]1CC[C@@H]2O [E2, β-estradiol]

- microsomal CLint [8]: 793.8 ± 0.07 µL/min/mg
- K m or S50 ([3]; 3-O-glucuronide formation): 86.1 ± 12.39 µM
- K m or S50 ([3]; 16-O-glucuronide formation): 11.91 ± 0.60 µM
- microsomal CLint ([9]; 3-O-glucuronide formation): 1.58 ± 0.16 µL/min/mg
- microsomal CLint ([9]; 16-O-glucuronide formation): 542.32 ± 0.05 µL/min/mg
- K m or S50 ([4]; 3-O-glucuronide formation): 50.18 ± 4.40 µM
- K m or S50 ([4]; 16-O-glucuronide formation): 11.59 ± 0.49 µM
- microsomal CLint ([5]; 3-O-glucuronide formation): 10.74 ± 0.1 µL/min/mg
- microsomal CLint ([5]; 16-O-glucuronide formation): 109.4 ± 0.04 µL/min/mg
Molecule: C[C@]12CC[C@@H]3c4ccc(O)cc4CC[C@H]3[C@@H]1C[C@@H](O)[C@@H]2O [E3, estriol]
